These results are taken from ChEMBL document CHEMBL1201862, “PubChem BioAssay data set” (2004).

The source made the active and inactive calls. Where only a bound is given, the exact number is not on record here.

The nature of assay [1]: HGIII-sPLA2 enzyme inhibition potency – biochemical, QFRET, IC50, dose response (AID 743457).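 Also: green fluorescence rise as the enzyme cleaves BODIPY PC-A2 in liposomes.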
A short description of assay [2]: Luminescence Cell-Based Dose Retest to Confirm Inhibitors of Cancer Stem Cells. [Related pubchem assays (depositor defined):AID2717, AID2721]. Type of assay: functional. The conditions noted are these: Homo sapiens.
The target in assay [3] is Heat shock protein HSP 90-alpha (Homo sapiens, UniProt P07900). Type of assay: functional, organism-based.
The subject of assay [4] is INS1. Kind of assay: INS-1E survival protection against cytokine death – cell-based, luminescence, retest, dose response (AID 449756).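 Also: cell death triggered by IL-1 beta plus TNF-alpha plus IFN-gamma mixture; protective hits raise ATP signal compared with cytokine alone wells.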 It is filed as functional. The conditions noted are these: Rattus norvegicus.
Assay [5] can be described thus: reduction of Shn3 3'UTR-driven luciferase in osteoblasts – cell-based, Clone20 osteoblasts, firefly luciferase, cherry-picked, dose response (AID 624132).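 Also: firefly luciferase luminescence from reporter carrying the Shn3 3'UTR in osteoblasts.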 It is filed as functional.
The nature of assay [6]: non-specific 3'UTR reporter inhibition in Clone20-Shn3RL – cell-based, Renilla luciferase, cherry-picked, counter-screen for Shn3 inhibitor project, dose response (AID 624133). It is filed as functional.
Assay [7] in a line: loss of viability in HepG2 cells – cell-based, CellTiter-Glo, cherry-picked, cytotoxicity control for Shn3 inhibitor project, dose response (AID 624134). It is filed as functional.
The nature of assay [8]: Shn3 3'UTR reporter signal decrease – cell-based, Clone20 osteoblasts, firefly luciferase, cherry-pick, set 2, Schnurri-3 inhibitor project, dose response (AID 720490).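 Also: actives lower the luminescence signal as inhibitors.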 It is filed as functional.
In assay [9] the target is fMet-Leu-Phe receptor (Homo sapiens, UniProt P21462). Kind of assay: formyl peptide receptor binders – dose response (AID 519). It is filed as functional.
For assay [10], the target named is T1, Luciferin 4-monooxygenase (Photinus pyralis, UniProt P08659). Kind of assay: inhibition of purified Photinus pyralis luciferase – biochemical, luminescence, dose response (AID 1891).
A short description of assay [11]: Luminescence Cell-Based Dose Confirmation HTS to Identify Inhibitors of Platelet Dense Granule Release. [Related pubchem assays: 1663 (Primary HTS), 1678 (Summary of Project)]. Type of assay: functional.
The target in assay [12] is Kallikrein-7 (Homo sapiens, UniProt P49862). Kind of assay: Fluorescence Intensity-based biochemical primary high throughput dose response assay to identify activators of kallikrein-7 (K7) zymogen.
For assay [13], the target named is NAD-dependent protein deacylase sirtuin-5, mitochondrial (Homo sapiens, UniProt Q9NXA8). Kind of assay: sirtuin-5 deacylation blockers, concentration series – biochemical, fluorescence imaging, cherry-pick, set 5, dose response (AID 720591).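 Also: desuccinylation of succinyl peptide AMC substrate read as fluorescence after trypsin release; potency of inhibitors that lower fluorescence and may act on trypsin instead.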
For assay [14], the target named is Protein Wnt-3a (Mus musculus, UniProt P27467). Kind of assay: SAR analysis of small molecule antagonists of Gli-SUFU in a Wnt3a luminescent reporter assay. It is filed as functional.
The nature of assay [15]: cells.
In assay [16] the test system is HEK293. Kind of assay: EBV LMP1 TES2 canonical NF-kB signalling blockers – cell-based, HEK293, luciferase, cherry-pick, dose response (AID 588343). It is filed as functional. The conditions noted are these: Homo sapiens.
Assay [17] has as its target Oxysterols receptor LXR-beta (Homo sapiens, UniProt P55055). Type of assay: functional, cell-based.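 Also: Cell-based luminescence dose-response assay of agonist activity at LXR, run as a confirmatory counterscreen to a daf-12 agonist screen; HEK293 cells with Gal4-LXR fusion and GAL4-driven luciferase reporter; agonist potency from rising luciferase signal of a Gal4-LXR reporter.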
Assay [18] has as its system HT-1080. Kind of assay: HT1080 cell viability loss – fluorescence readout (AID 620). It is filed as functional, cell-based. The conditions noted are these: Homo sapiens.
The target of assay [19] is T1, Luciferin 4-monooxygenase. Kind of assay: Counter Screen for Luciferase-based Assay Positives. [Related pubchem assays: 620, 618, 411 ].
Assay [20] in a line: cells. The source holds these as a separate data set.
Assay [21] can be described thus: viability of uninfected HEp-2 cells – cell-based, HTS, cytotoxicity control for RSV inhibitor project, dose response (AID 2410). Type of assay: functional. The conditions noted are these: human respiratory syncytial virus.
Assay [22] deals with Streptococcus sp. 'group A'. Kind of assay: Streptococcus pyogenes SK(-)GAS viability under kanamycin – luminescence, BacTiterGlo, confirmation, counter-screen for streptokinase expression inhibitor project, dose response (AID 1900). Type of assay: functional, organism-based.
Assay [23] concerns the target T2, Streptokinase A (Streptococcus pyogenes serotype M1, UniProt P10520).
T2 sequence (P10520 whole entry): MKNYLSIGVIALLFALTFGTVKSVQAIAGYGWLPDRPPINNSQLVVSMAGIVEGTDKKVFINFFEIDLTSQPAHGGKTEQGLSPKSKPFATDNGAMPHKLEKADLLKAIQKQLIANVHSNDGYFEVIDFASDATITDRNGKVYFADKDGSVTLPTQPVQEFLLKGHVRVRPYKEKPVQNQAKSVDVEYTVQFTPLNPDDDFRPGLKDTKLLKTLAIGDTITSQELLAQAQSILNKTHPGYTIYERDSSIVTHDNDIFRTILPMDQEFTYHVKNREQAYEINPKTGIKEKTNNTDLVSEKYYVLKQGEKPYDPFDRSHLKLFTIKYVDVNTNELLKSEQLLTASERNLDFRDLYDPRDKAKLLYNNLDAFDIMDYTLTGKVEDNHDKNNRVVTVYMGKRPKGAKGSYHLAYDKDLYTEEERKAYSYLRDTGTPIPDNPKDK
Kind of assay: viability-normalized secreted streptokinase activity reduction – plasminogen activation absorbance, OD405, dose response (AID 1914).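 Also: secreted streptokinase activity via plasminogen activation per viability signal from cell pellet.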 It is filed as functional, Streptococcus pyogenes M1 GAS.

Assay [24] has as its target T3, Heat shock factor protein 1 (Mus musculus, UniProt P38532).
T3 sequence (P38532 whole entry): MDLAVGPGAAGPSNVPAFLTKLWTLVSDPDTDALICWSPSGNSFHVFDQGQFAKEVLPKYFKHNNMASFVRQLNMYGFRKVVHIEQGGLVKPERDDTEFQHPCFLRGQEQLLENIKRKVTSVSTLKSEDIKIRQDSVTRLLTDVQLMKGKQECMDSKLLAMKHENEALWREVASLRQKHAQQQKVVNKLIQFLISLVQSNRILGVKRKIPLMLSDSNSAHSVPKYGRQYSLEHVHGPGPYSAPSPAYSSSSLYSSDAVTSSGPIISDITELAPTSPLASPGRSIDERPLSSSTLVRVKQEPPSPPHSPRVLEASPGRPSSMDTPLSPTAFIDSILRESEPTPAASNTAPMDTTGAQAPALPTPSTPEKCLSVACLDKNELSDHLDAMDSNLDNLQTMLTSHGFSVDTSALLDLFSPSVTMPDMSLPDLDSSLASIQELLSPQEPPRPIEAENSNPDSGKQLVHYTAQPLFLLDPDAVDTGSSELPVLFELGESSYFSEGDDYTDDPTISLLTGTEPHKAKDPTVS
Kind of assay: decrease of HSF1-responsive luciferase luminescence – cell-based, NIH3T3, dose retest, confirmation (AID 2382).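 Also: NIH3T3 fibroblasts with HSF1-driven luciferase reporter stressed by proteasome inhibitor MG132; luminescence from HSF1-driven luciferase expression after 8 hours of MG132 stress.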 It is filed as functional.

Assay [25] addresses Major prion protein (Homo sapiens, UniProt P04156). It is filed as functional, cell-based.
Assay [26] deals with Streptococcus. Kind of assay: GAS UMAA2166 growth inhibition – luminescence, BacTiterGlo, counter-screen for streptokinase expression inhibitor project, dose response (AID 1915).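 Also: potency for reduction of bacterial viability or growth.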 Type of assay: functional, organism-based.

As for `O=C(/C=C/c1ccccc1)NC(=S)NNC(=O)c1cnccn1`, the IC50 in assay [1] is 66.8 µM (inactive). Also, the AC50 was 8.78 µM (active) in assay [2], 2.87 µM (active) in assay [3] and 1.39 µM (active) in assay [4].
In the case of `O=C(Nc1ccc(Cl)cc1)c1cc(S(=O)(=O)N2CCOCC2)cs1`, the concentration at half-maximal activity (AC50) in [5] is 4.23 µM (active); in [6], 14.7 µM (active); in assay [7] it was 46.9 µM (active); in [8], 4.83 µM (active).
Regarding `COc1ccccc1NC(=O)CSc1nnc(Cn2nnc(-c3ccccc3)n2)n1-c1ccccc1`, the Ki in [9] is > 66.7 µM (inactive).
Regarding `CN1CCSc2ccc(C(=O)NCc3ccccc3F)cc21`, the figures for the EC50 in assay [10], in assay [11] and in assay [12] were > 112 µM (not active), > 112 µM (not active) and > 23.2 µM (inactive), respectively.
For the molecule `COC(=O)C1=CN(CC2CCCO2)C=C(C(=O)OC)C1c1ccsc1` (configuration not stated), in assay [12], the EC50 is > 69.5 µM (inactive).
`Cc1ccc(SCc2cn3ccccc3n2)cc1`: the AC50 in [13] is > 30 µM (inactive).
Regarding `O=C(Nc1cc(N2CCCCC2)ncn1)c1ccccc1`, in [14], the IC50 is > 21.8 µM (inactive).
In the case of `c1ccc(-c2nnc(-c3ccccn3)s2)nc1`, the EC50 in assay [15] and in assay [17] was > 67.5 µM (inactive) each time. Besides, the AC50 in assay [16] was 4.63 µM (active).
For the molecule `Cc1ccc2nc(-c3cc(N)cc(N)c3)oc2c1`, the IC50 in assay [1] was > 122 µM (inactive). The EC50 is > 50 µM (not active) in assay [18] and 1.01 µM (active) in assay [19].
As to `OC(COc1ccc2ccccc2c1Br)Cn1cnc(-c2ccccc2)c1` (configuration not stated), the IC50 was > 138 µM (inactive) in [20] and 4.17 µM (active) in [25]. The CC50 in [21] is 9.42 µM (active). The EC50 in [22] is 6.29 µM (active); in [23] it was 9.22 µM (active); in [24], > 195 µM (not active); in [26], 21.7 µM (active). Also, in assay [2], the AC50 was 5.02 µM (active).
Take `O=C(Nc1nc(-c2ccccc2)cs1)C1CCCCN1S(=O)(=O)c1ccccc1` (configuration not stated): the AC50 in assay [5] is 5.14 µM (active); in assay [7], 58 µM (active); in assay [8], 5.89 µM (active).
